Source: patent US4345938A, “Herbicidal 2-haloacetanilides” (Monsanto Company, priority 1980, dated 1982)
Like-named read-outs stand apart in the source and are kept apart here.

Key:
Format in all cases: in vivo
Monochoria vaginalis = assay: Field transplant rice test, applied 9 DAT, MV; conditions: for inhibition at 375 g/ha / inhibition at 750 g/ha / inhibition at 1500 g/ha / inhibition at 3000 g/ha: Pontederia vaginalis, 216 h, read-out: Percent Inhibition, MV; for inhibition at 375 g/ha: 0.375 Kg/Ha; for inhibition at 750 g/ha: 0.75 Kg/Ha; for inhibition at 1500 g/ha: 1.5 Kg/Ha; for inhibition at 3000 g/ha: 3.0 Kg/Ha
From the text: (§1) In the discussion of data below, occasional reference is made to herbicide application rates symbolized as "GR15 " and "GR85 "; these rates are given in kilograms per hectare (kg/ha) which are convertible into pounds per acre (lbs/A) by dividing the kg/ha rate by 1.12.
(§2) A further guide to the effectiveness of a chemical as a selective herbicide is the "selectivity factor" ("SF") for a herbicide in given crops and weeds. The selectivity factor is a measure of the relative degree of crop safety and weed injury and is expressed in terms of the GR15 /GR85 ratio, i.e., the GR15 rate for the crop divided by the GR85 rate for the weed, both rates in kg/ha (lb/A.)
(§3) The test data in Table III for all compounds was obtained under identical test conditions. The weeds used in the tests herein have the following abbreviations in the tables: Echinochloa crus-galli (EC), Monochloria vaginalis (MV), Cyperus Serotinus (CS), Eleocharis Kuroguwai (EK) and Sagittaria trifolia (ST).
(§4) In further comparative tests, a preferred compound of this invention (Example 1) was tested in the field with prior art Compounds A-D. These tests were conducted under conditions reflecting herbicide application times generally favorable to all herbicides in the test. The timing of application of herbicides to transplant rice is very important, whether, as in some instances, prior to transplanting the rice; in other instances, at the time of transplanting or else after transplanting. Application times are conventionally referred to as "days before transplant" (DBT) or "days after transplant" ("DAT"). The field test data in Table IV was obtained from a test in which the herbicides were applied at the time of transplant, i.e., "0 DAT", with observations being made weekly up to six weeks after transplant ("WAT") beginning at two weeks after transplant; for illustrative and representative purposes, only the early, middle and late period observations, i.e., 2 WAT, 4 WAT and 6 WAT, are shown in Table IV. The data in Table IV is for rates of application common to all herbicides in the test, i.e., from 3.0 kg/ha (2.67 lb/A) down to 0.375 kg/ha (0.34 lb/A). All herbicides were applied at their actual or expected use rates, i.e., as granules containing 2.5% by weight herbicide for the compound of Example 1, Compounds B, C and D and 5.0% by weight for Compound A.
(§5) In Table V are presented field data showing the relative performance of the compound of Example 1 and Compounds A-D applied 9 DAT, with observations being made weekly from 3 WAT to 7 WAT; again, for illustrative and representative purposes, only the early, middle and late period observations are reported in Table V, the herbicide rates and concentrations of active ingredients the same as is shown in Table IV.

Eleocharis kuroguwai = assay: Field transplant rice test, applied 0 DAT, EK; conditions: 0 h, read-out: Percent Inhibition, EK; for inhibition at 375 g/ha: 0.375 Kg/Ha; for inhibition at 750 g/ha: 0.75 Kg/Ha; for inhibition at 1500 g/ha: 1.5 Kg/Ha; for inhibition at 3000 g/ha: 3.0 Kg/Ha
Method: as §3, §4

Rice = assay: Field transplant rice test, applied 9 DAT, rice injury; conditions: Oryza sativa, 216 h, read-out: Percent Inhibition, Rice; for inhibition at 375 g/ha: 0.375 Kg/Ha; for inhibition at 750 g/ha: 0.75 Kg/Ha; for inhibition at 1500 g/ha: 1.5 Kg/Ha; for inhibition at 3000 g/ha: 3.0 Kg/Ha
Method: as §4, §5

Echinochloa crus-galli = assay: Field transplant rice test, applied 9 DAT, EC; conditions: for inhibition at 375 g/ha / inhibition at 750 g/ha / inhibition at 1500 g/ha / inhibition at 3000 g/ha: Echinochloa crus-galli, 216 h, read-out: Percent Inhibition, EC; for inhibition at 375 g/ha: 0.375 Kg/Ha; for inhibition at 750 g/ha: 0.75 Kg/Ha; for inhibition at 1500 g/ha: 1.5 Kg/Ha; for inhibition at 3000 g/ha: 3.0 Kg/Ha
From the text: as §1, §2, §3, §4, §5

Cyperus serotinus = assay: Field transplant rice test, applied 9 DAT, CS; conditions: for inhibition at 375 g/ha / inhibition at 750 g/ha / inhibition at 1500 g/ha / inhibition at 3000 g/ha: Cyperus serotinus, 216 h, read-out: Percent Inhibition, CS; for inhibition at 375 g/ha: 0.375 Kg/Ha; for inhibition at 750 g/ha: 0.75 Kg/Ha; for inhibition at 1500 g/ha: 1.5 Kg/Ha; for inhibition at 3000 g/ha: 3.0 Kg/Ha
From the text: as §1, §2, §3, §4, §5

Work on CCCCOCCN(C(=O)CCl)c1c(CC)cccc1CC [Compound B, 2',6'-diethyl-N-(n-butoxyethyl)-2-chloroacetanilide] yielded an inhibition at 375 g/ha (Monochoria vaginalis; 3 WAT) of 100%, an inhibition at 375 g/ha (Monochoria vaginalis; 5 WAT) of 95% and an inhibition at 375 g/ha (Monochoria vaginalis; 7 WAT) of 77%. The inhibition at 750 g/ha (Monochoria vaginalis; 3 WAT) was 97%, the inhibition at 750 g/ha (Monochoria vaginalis; 5 WAT) was 98% and the inhibition at 750 g/ha (Monochoria vaginalis; 7 WAT) was 88%. The inhibition at 1500 g/ha (Monochoria vaginalis; 3 WAT) was 98%, the inhibition at 1500 g/ha (Monochoria vaginalis; 5 WAT) was 100% and the inhibition at 1500 g/ha (Monochoria vaginalis; 7 WAT) was 100%. The inhibition at 3000 g/ha (Monochoria vaginalis; 3 WAT) was 100%, the inhibition at 3000 g/ha (Monochoria vaginalis; 5 WAT) was 100% and the inhibition at 3000 g/ha (Monochoria vaginalis; 7 WAT) was 97%. For the same compound, the “selectivity factor (GR15/GR85), MV in transplant rice” value (Monochoria vaginalis; between 3 WAT and 7 WAT) was 8, the inhibition at 375 g/ha (Eleocharis kuroguwai; 2 WAT) was 48% and the inhibition at 375 g/ha (Eleocharis kuroguwai; 4 WAT) was 37%. For the same compound, the inhibition at 375 g/ha (Eleocharis kuroguwai; 6 WAT) was 7%, the inhibition at 750 g/ha (Eleocharis kuroguwai; 2 WAT) was 63% and the inhibition at 750 g/ha (Eleocharis kuroguwai; 4 WAT) was 42%. It also gave an inhibition at 750 g/ha (Eleocharis kuroguwai; 6 WAT) of 0%, an inhibition at 1500 g/ha (Eleocharis kuroguwai; 2 WAT) of 73% and an inhibition at 1500 g/ha (Eleocharis kuroguwai; 4 WAT) of 65%. It also gave an inhibition at 1500 g/ha (Eleocharis kuroguwai; 6 WAT) of 17%, an inhibition at 3000 g/ha (Eleocharis kuroguwai; 2 WAT) of 100% and an inhibition at 3000 g/ha (Eleocharis kuroguwai; 4 WAT) of 94%. The inhibition at 3000 g/ha (Eleocharis kuroguwai; 6 WAT) was 72%, the inhibition at 375 g/ha (Rice; 3 WAT) was 12% and the inhibition at 375 g/ha (Rice; 5 WAT) was 0%. The inhibition at 375 g/ha (Rice; 7 WAT) was 5%, the inhibition at 750 g/ha (Rice; 3 WAT) was 12% and the inhibition at 750 g/ha (Rice; 5 WAT) was 5%. It also gave an inhibition at 750 g/ha (Rice; 7 WAT) of 3%, an inhibition at 1500 g/ha (Rice; 3 WAT) of 10% and an inhibition at 1500 g/ha (Rice; 5 WAT) of 2%. It also gave an inhibition at 1500 g/ha (Rice; 7 WAT) of 5%, an inhibition at 3000 g/ha (Rice; 3 WAT) of 12% and an inhibition at 3000 g/ha (Rice; 5 WAT) of 5%. It also gave an inhibition at 3000 g/ha (Rice; 7 WAT) of 2%, an inhibition at 375 g/ha (Echinochloa crus-galli; 3 WAT) of 57% and an inhibition at 375 g/ha (Echinochloa crus-galli; 5 WAT) of 55%. It also gave an inhibition at 375 g/ha (Echinochloa crus-galli; 7 WAT) of 47%, an inhibition at 750 g/ha (Echinochloa crus-galli; 3 WAT) of 68% and an inhibition at 750 g/ha (Echinochloa crus-galli; 5 WAT) of 53%. It also gave an inhibition at 750 g/ha (Echinochloa crus-galli; 7 WAT) of 50%, an inhibition at 1500 g/ha (Echinochloa crus-galli; 3 WAT) of 90% and an inhibition at 1500 g/ha (Echinochloa crus-galli; 5 WAT) of 80%. For the same compound, the inhibition at 1500 g/ha (Echinochloa crus-galli; 7 WAT) was 85%, the inhibition at 3000 g/ha (Echinochloa crus-galli; 3 WAT) was 95% and the inhibition at 3000 g/ha (Echinochloa crus-galli; 5 WAT) was 95%. For the same compound, the inhibition at 3000 g/ha (Echinochloa crus-galli; 7 WAT) was 92%, the “selectivity factor (GR15/GR85), EC in transplant rice” value (Echinochloa crus-galli; between 3 WAT and 7 WAT) was 2 and the inhibition at 375 g/ha (Cyperus serotinus; 3 WAT) was 93%. For the same compound, the inhibition at 375 g/ha (Cyperus serotinus; 5 WAT) was 100%, the inhibition at 375 g/ha (Cyperus serotinus; 7 WAT) was 77% and the inhibition at 750 g/ha (Cyperus serotinus; 3 WAT) was 78%. The inhibition at 750 g/ha (Cyperus serotinus; 5 WAT) was 67%, the inhibition at 750 g/ha (Cyperus serotinus; 7 WAT) was 67% and the inhibition at 1500 g/ha (Cyperus serotinus; 3 WAT) was 87%. The inhibition at 1500 g/ha (Cyperus serotinus; 5 WAT) was 85%, the inhibition at 1500 g/ha (Cyperus serotinus; 7 WAT) was 67% and the inhibition at 3000 g/ha (Cyperus serotinus; 3 WAT) was 75%. The inhibition at 3000 g/ha (Cyperus serotinus; 5 WAT) was 72%, the inhibition at 3000 g/ha (Cyperus serotinus; 7 WAT) was 65% and the “selectivity factor (GR15/GR85), CS in transplant rice” value (Cyperus serotinus; between 3 WAT and 7 WAT) was 1.
